Experimental findings from ChEMBL document CHEMBL4229457, “Mechanism underlying inhibitory effect of six dicaffeoylquinic acid isomers on melanogenesis and the computational molecular modeling studies” (Bioorg Med Chem, 2018) are described below.

Data set [1] can be described thus: Inhibition of melanogenesis in HEMn assessed as reduction in intracellular melanin production at 1 uM after 72 hrs relative to control. Conditions: Homo sapiens. In kind it is functional.
The test system of data set [2] is B16-F1. In words: Cytotoxicity against mouse B16-F1 cells assessed as reduction in cell viability at 25 uM after 72 hrs by MTT assay. In kind it is cell-based. Particulars: b16-f1, 72 h. In general terms: Tetrazolium dyes change colour on reduction, which living cells bring about.
The test system of data set [3] is B16-F1. In words: Inhibition of alpha-MSH-stimulated melanogenesis in mouse B16-F1 cells assessed as reduction in intracellular melanin production at 25 uM after 72 hrs relative to control. In kind it is functional. Conditions: B16-F1, 72 h.
Data set [4] deals with B16-F1. In words: Inhibition of adenylate cyclase in alpha-MSH-stimulated mouse B16-F1 cells assessed as reduction in cAMP-CREB signaling pathway-mediated TYR expression level at 25 uM after 48 to 72 hrs by Western blot analysis. In kind it is cell-based. On the technique in general: A western blot detects proteins with antibodies after separation by electrophoresis.
For data set [5], the system named is B16-F1. The data set is described as follows: Inhibition of adenylate cyclase in alpha-MSH-stimulated mouse B16-F1 cells assessed as reduction in cAMP-CREB signaling pathway-mediated DCT expression level at 25 uM after 48 to 72 hrs by Western blot analysis. Type of data set: cell-based.
In data set [6] the test system is B16-F1. The data set is described as follows: Inhibition of adenylate cyclase in alpha-MSH-stimulated mouse B16-F1 cells assessed as reduction in cAMP-CREB signaling pathway-mediated TRP1 expression level at 25 uM after 48 to 72 hrs by Western blot analysis. Type of data set: cell-based.
The test system of data set [7] is B16-F1. In words: Inhibition of adenylate cyclase in alpha-MSH-stimulated mouse B16-F1 cells assessed as reduction in cAMP-CREB signaling pathway-mediated MITF expression level at 25 uM after 48 to 72 hrs by Western blot analysis. In kind it is cell-based.
The subject of data set [8] is B16-F1. The data set is described as follows: Inhibition of adenylate cyclase in alpha-MSH-stimulated mouse B16-F1 cells assessed as reduction in CREB phosphorylation at 25 uM measured up to 360 mins by Western blot analysis. In kind it is cell-based.
For data set [9], the species on record is Mus musculus. The data set is described as follows: Inhibition of adenylate cyclase in mouse B16-F1 cell lysates assessed as reduction in forskolin-induced cAMP levels incubated for 6 hrs followed by forskolin stimulation measured after 30 mins by immuno assay. A general note: cAMP levels reflect the balance of adenylyl cyclase and phosphodiesterase activity.

For data set [10], the species on record is Mus musculus. The data set is described as follows: Inhibition of adenylate cyclase in mouse B16-F1 cell lysates assessed as reduction in alpha-MSH-induced cAMP levels incubated for 6 hrs followed by forskolin stimulation measured after 30 mins by immuno assay.
The test system of data set [11] is B16-F1. In words: Downregulation of adenylate cyclase protein expression level in alpha-MSH-stimulated mouse B16-F1 cells at 25 uM by Western blot analysis. Type of data set: functional, cell-based.
The nature of data set [12]: Inhibition of melanogenesis in HEMn assessed as reduction in intracellular melanin production at 5 uM after 72 hrs relative to control. Type of data set: functional. Particulars: Homo sapiens.
Data set [13] can be described thus: Inhibition of melanogenesis in HEMn assessed as reduction in intracellular melanin production at 10 uM after 72 hrs relative to control. In kind it is functional. Particulars: Homo sapiens.
The nature of data set [14]: Inhibition of melanogenesis in HEMn assessed as reduction in intracellular melanin production at 25 uM after 72 hrs relative to control. Type of data set: functional. Particulars: Homo sapiens.
Data set [15] concerns the target T1, Tyrosinase (Homo sapiens) (UniProt P14679).
T1 sequence (whole entry): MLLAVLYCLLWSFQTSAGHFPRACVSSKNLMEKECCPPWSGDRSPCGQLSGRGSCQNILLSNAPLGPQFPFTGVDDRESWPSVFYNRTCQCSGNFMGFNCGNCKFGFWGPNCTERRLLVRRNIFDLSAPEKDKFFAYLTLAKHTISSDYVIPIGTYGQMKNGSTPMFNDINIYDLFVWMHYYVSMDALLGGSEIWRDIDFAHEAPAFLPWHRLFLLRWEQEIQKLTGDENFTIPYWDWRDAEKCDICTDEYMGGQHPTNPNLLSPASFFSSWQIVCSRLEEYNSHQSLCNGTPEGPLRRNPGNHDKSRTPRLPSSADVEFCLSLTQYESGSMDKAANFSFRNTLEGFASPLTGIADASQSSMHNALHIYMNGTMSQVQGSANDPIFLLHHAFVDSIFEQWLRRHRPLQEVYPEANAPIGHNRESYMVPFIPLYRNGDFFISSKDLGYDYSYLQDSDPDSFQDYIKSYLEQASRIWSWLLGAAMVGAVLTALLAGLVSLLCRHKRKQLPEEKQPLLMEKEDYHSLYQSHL
The data set is described as follows: Inhibition of tyrosinase in HEMn lysates assessed as reduction in melanin production using L-DOPA as substrate incubated for 30 mins followed by substrate addition measured after 30 mins.

For data set [16], the target named is T2, Tyrosinase (Mus musculus) (UniProt P11344).
T2 sequence (whole entry): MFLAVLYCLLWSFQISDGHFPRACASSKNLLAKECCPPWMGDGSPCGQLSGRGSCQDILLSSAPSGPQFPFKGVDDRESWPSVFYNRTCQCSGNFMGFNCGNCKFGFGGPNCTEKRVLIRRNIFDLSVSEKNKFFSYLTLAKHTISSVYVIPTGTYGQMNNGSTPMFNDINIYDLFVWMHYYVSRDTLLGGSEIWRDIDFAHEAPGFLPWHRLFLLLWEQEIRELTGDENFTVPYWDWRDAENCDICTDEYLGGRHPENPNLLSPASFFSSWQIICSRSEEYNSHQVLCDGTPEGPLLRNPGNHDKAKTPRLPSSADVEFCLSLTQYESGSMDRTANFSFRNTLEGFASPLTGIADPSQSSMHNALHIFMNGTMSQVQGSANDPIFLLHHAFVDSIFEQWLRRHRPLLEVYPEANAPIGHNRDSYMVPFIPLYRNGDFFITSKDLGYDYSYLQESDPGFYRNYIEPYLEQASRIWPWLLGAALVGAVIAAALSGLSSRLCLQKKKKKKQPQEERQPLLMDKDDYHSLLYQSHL
Conditions: at 25 µM.
Description: Inhibition of tyrosinase in mouse B16-F1 cell lysates assessed as reduction in melanin production at 25 uM using L-DOPA as substrate incubated for 30 mins followed by substrate addition measured after 30 mins

Calls of active or inactive are those of the source. The rule behind the calls is not given here. Some results are limits rather than exact numbers.

The inhibition is the relative decrease from the control value, in per cent.

On to `O=C(/C=C/c1ccc(O)c(O)c1)O[C@H]1[C@H](O)C[C@@](O)(C(=O)O)C[C@H]1OC(=O)/C=C/c1ccc(O)c(O)c1`, for which the inhibition at 1 µM in data set [1] turned out to be 7.7%. The Activity result with B16-F1 [2] was “Non-Toxic”. In addition, the inhibition at 25 µM in the data set on B16-F1 [3] stood at 84%; in data set [14], 51.2%. The inhibition entry in the data set with B16-F1 [4], with B16-F1 [5], in the data set with B16-F1 [6] and in the data set with B16-F1 [8] was “Active” in each case. Moreover, the inhibition in the data set on B16-F1 [7] is 91%; in the data set filed under Mus musculus [9], “Dose-dependent effect”; in the data set listed under Mus musculus [10], “Dose-dependent effect”; in [15], “Dose-dependent effect”; in data set [16], > 20%. For the same compound, in the data set on B16-F1 [11], the result was inactive. Moreover, the inhibition at 5 µM in data set [12] is 11.2%. Besides, the inhibition at 10 µM in data set [13] stood at 25.8%.
As for `O=C(/C=C/c1ccc(O)c(O)c1)O[C@H]1C[C@@](OC(=O)/C=C/c2ccc(O)c(O)c2)(C(=O)O)C[C@H](O)[C@@H]1O`, in the data set with B16-F1 [2], the Activity result is “Non-Toxic”. In addition, the inhibition at 25 µM with B16-F1 [3] came out at 26%. Besides, the inhibition is 66% in the data set with B16-F1 [4] and > 20% in data set [16]. For the same compound, the inhibition result with B16-F1 [5] is “Active”.
The corresponding values for `O=C(/C=C/c1ccc(O)c(O)c1)O[C@@H]1C[C@@](OC(=O)/C=C/c2ccc(O)c(O)c2)(C(=O)O)C[C@@H](O)[C@@H]1O` [CYNARIN] are “Non-Toxic”, 61%, 72%, > 20% and “Active”.
For `OC[C@H]1O[C@@H](Oc2ccc(O)cc2)[C@H](O)[C@@H](O)[C@@H]1O` [ARBUTIN], in the data set with B16-F1 [3], the inhibition at 25 µM was 34%. The inhibition result in [16] was “Active”.
As for `O=C(/C=C/c1ccc(O)c(O)c1)O[C@@H]1C[C@](O)(C(=O)O)C[C@@H](OC(=O)/C=C/c2ccc(O)c(O)c2)[C@H]1O`, the Activity result with B16-F1 [2] was “Non-Toxic”. The inhibition at 25 µM in the data set on B16-F1 [3] turned out to be 26%. In addition, the inhibition result in the data set with B16-F1 [4], with B16-F1 [5], in the data set with B16-F1 [6] and in the data set on B16-F1 [7] was “Active” throughout. Further, the inhibition in [16] was > 20%.
Turning to `O=C(/C=C/c1ccc(O)c(O)c1)OC1[C@H](O)CC(OC(=O)/C=C/c2ccc(O)c(O)c2)(C(=O)O)C[C@@H]1O` (stereo not given in full), the Activity entry in the data set with B16-F1 [2] is recorded as “Non-Toxic”. Further, in the data set with B16-F1 [3], the inhibition at 25 µM was 18%. The inhibition in the data set with B16-F1 [4] was 92%; in [16], > 20%. For the same compound, the inhibition result in the data set with B16-F1 [5] was “Active”.
In the same order, the values of `O=C(/C=C/c1ccc(O)c(O)c1)O[C@@H]1[C@H](O)C[C@@](O)(C(=O)O)C[C@H]1OC(=O)/C=C/c1ccc(O)c(O)c1` are “Non-Toxic”, 26%, “Active”, > 20% and “Active”.
